# Experimental data from ChEMBL document CHEMBL5321205, “Development and therapeutic potential of adaptor-associated kinase 1 inhibitors in human multifaceted diseases” (Eur J Med Chem, 2023).
# Tests used:
# [1] = molecular target: T1, AP2-associated protein kinase 1 (Homo sapiens, UniProt Q2M2I8); experiment: Binding affinity of AAK1 (unknown origin) assessed as dissociation constant
# [2] = molecular target: T1, AP2-associated protein kinase 1; experiment: Inhibition of GST-Xa-tagged recombinant human AAK1 using (5-FAM)-Aha-KEEQSQITSQVTGQIGWR-NH2 as substrate assessed as reduction in AP2M1 phosphorylation incubated for 3 hrs in presence of ATP by fluorescence based assay
# [3] = molecular target: T1, AP2-associated protein kinase 1; experiment: Inhibition of AAK1 expressed in human […] cells; type: cell-based, HEK293F
# [4] = Half life in mouse at 10 mg/kg, po or 1 mg/kg, iv measured upto 24 hrs; type: ADME, organism-based; conditions: in vivo
# [5] = Oral bioavailability in mouse at 10 mg/kg measured upto 24 hrs; type: ADME, organism-based; conditions: in vivo
# [6] = molecular target: T1, AP2-associated protein kinase 1; experiment: Inhibition of GST-tagged recombinant AAK1 (unknown origin) using AP2M1 peptide as substrate by ADP-Glo kinase assay
# [7] = molecular target: T1, AP2-associated protein kinase 1; experiment: Inhibition of AAK1 (unknown origin)
# T1 sequence (Q2M2I8 whole entry): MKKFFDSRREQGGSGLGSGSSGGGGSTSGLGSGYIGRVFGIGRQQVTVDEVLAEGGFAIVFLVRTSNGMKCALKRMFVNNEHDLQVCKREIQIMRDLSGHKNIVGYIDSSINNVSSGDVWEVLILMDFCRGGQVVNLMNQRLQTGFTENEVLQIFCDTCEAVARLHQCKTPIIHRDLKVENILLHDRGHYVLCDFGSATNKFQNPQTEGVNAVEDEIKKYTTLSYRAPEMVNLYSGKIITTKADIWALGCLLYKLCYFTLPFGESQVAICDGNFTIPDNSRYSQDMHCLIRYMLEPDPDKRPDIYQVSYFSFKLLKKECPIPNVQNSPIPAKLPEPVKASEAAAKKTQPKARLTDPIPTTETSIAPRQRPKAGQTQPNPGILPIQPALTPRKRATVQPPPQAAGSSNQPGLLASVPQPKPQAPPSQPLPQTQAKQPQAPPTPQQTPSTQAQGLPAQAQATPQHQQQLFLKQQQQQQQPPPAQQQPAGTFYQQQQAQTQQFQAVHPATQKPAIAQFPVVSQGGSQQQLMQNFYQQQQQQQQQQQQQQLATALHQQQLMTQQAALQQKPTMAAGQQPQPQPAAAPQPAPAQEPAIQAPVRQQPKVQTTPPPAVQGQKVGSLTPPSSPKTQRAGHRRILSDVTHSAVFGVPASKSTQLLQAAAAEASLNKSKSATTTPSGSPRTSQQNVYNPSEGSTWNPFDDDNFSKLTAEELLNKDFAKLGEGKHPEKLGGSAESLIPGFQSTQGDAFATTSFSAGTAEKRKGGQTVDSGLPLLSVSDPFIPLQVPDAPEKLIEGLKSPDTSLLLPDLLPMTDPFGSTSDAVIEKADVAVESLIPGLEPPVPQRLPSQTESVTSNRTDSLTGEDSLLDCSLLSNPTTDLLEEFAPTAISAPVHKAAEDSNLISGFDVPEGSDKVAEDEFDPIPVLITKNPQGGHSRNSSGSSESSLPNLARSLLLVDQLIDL
smiles,measurement,setting,value
COC(=O)c1ccc2c(c1)NC(=O)C2C(Nc1ccc(N(C)C(=O)CN2CCN(C)CC2)cc1)c1ccccc1 (stereo unspecified),Kd,[1],1060 nM
[3H]CC([3H])(C[3H])C([3H])[C@H](N)COc1ccc2c(c1)[nH]c(=O)c1cnccc12 (stereo partly specified),IC50,[2],2.8 nM
CC(C)C[C@](C)(N)COc1ccc(-c2ccncc2)cc1C(F)(F)F,IC50,[3],2.9 nM
COc1ncccc1-c1cnn2ccc(N3CCN(C(=O)OC(C)C)CC3)nc12,half-life,[4],3.6 h
same,bioavailability,[5],100%
COC(=O)[C@@]1(O)[C@@H](C)[C@H]2O[C@]1(C)n1c3ccccc3c3c4c(c5c6ccccc6n2c5c31)C(=O)NC4,IC50,[6],< 30 nM
COC(=O)[C@@]1(O)C[C@@H]2O[C@]1(C)n1c3ccccc3c3c4c(c5c6ccccc6n2c5c31)C(=O)NC4,IC50,[6],< 10 nM
COc1ncccc1-c1cnc2ccc(N3CC[C@@H](N(C)C(=O)OC(C)C)C3)nn12,IC50,[7],< 10 nM
same,Kd,[1],1 nM
COc1ncccc1-c1cnc2ccc(N3CC[C@@H](N(C)C(=O)OC(C)(C)C)C3)nn12,IC50,[7],< 10 nM
same,Kd,[1],1 nM
